Reference: patent publication US20250084091A1, “INHIBITORS OF SARS-COV-2” (The Texas A&M University System, priority 2021, published 2025)
pEC50, pIC50: −log10 of the molar value. Values after ≈ are worked out from the molar mass of the structure shown. Like-named read-outs stand apart in the source and are kept apart here.

Experiments:
[1] = biological target: SARS-CoV-2 main protease (Mpro) (Severe acute respiratory syndrome coronavirus 2, UniProt P0DTD1); assay: biochemical
[2] = system: SARS-CoV-2 (strain USA-WA1/2020); assay: microbe, parasite or virus in culture; type: cell-based; conditions: SARS-CoV-2 infected HeLa-ACE2 cells
[3] = system: HeLa-ACE2 cells; assay: cells; type: cell-based; conditions: Table 2, total cell count in infected plates
[4] = Uninfected host cell cytotoxicity counter screen; type: cell-based; conditions: human
In short: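 HeLa-ACE2 cells, uninfected, seeded at 400 cells/well with compounds and held 24 hours at 37° C., 5% CO2. Dead cells stained with Image-iT DEAD green, fixed in 4% paraformaldehyde, DAPI-counterstained and imaged. Data normalized to DMSO and 40 μM puromycin controls; concentration responses in triplicate.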

[5] = system: CoV-2 in Vero cells; assay: CoV-2 Vero antiviral assay; type: cell-based, SARS-CoV-2; conditions: Severe acute respiratory syndrome coronavirus 2, Vero, read-out: CoV-2 Vero EC50/100
[6] = Severe acute respiratory syndrome coronavirus 2, Table 2, read-out: CoV-2 HeLa EC50

Structure (SMILES)	pIC50 ([1]; Table 2, read-out: Enzyme IC50)	pEC50 [2, 6]	pEC50 [3]	CC50 at 24 h [4] [nM]	EC50 [5] [µg/mL]	pIC50 ([1]; Enzyme IC50, Table 2)	pEC50 ([2]; Severe acute respiratory syndrome coronavirus 2, HeLa-ACE2, read-out: CoV-2 HeLa EC50, Table 2)	CC50 at 24 h ([4]; Table 2, uninfected cells, 24 hours, read-out: Uninfected HeLa-ACE2 CC50) [nM]
O=C(c1cncc(Br)c1)N1CCN(C(c2ccccc2)c2ccccc2)CC1 [AA-551, (4-benzhydrylpiperazin-1-yl)(5-bromopyridin-3-yl)methanone]	6.66	6.09	< 5.02	> 39800	2.5 (≈ 5.73 µM)	–	–	–
Cc1cncc(C(=O)N2CCN(C(c3ccccc3)c3ccccc3)CC2)c1 [AA-596, (4-benzhydrylpiperazin-1-yl)(5-methylpyridin-3-yl)methanone]	6.89	6.44	< 5.02	> 39800	2.5 (≈ 6.73 µM)	–	–	–
Cc1cncc(C(=O)N2CC3CCC(C2)N3C(c2ccccc2)c2ccccc2)c1 [AA-604, (8-benzhydryl-3,8-diazabicyclo[3.2.1]octan-3-yl)(5-methylpyridin-3-yl)methanone]	–	–	< 5.02	–	5 (≈ 12.6 µM)	7.09	6.62	> 39800
Cc1cncc(C(=O)N2CCN(C(c3ccccc3)c3cccnc3)CC2)c1 (centres unmarked) [MKP-1217, 1-(5-methylpyridine-3-carbonyl)-4-[phenyl(pyridin-3-yl)methyl]piperazine]	6.49	6.32	5.88	> 39800	10 (≈ 26.8 µM)	–	–	–
Cc1cncc(C(=O)N2CCN(C(c3ccccc3)c3cccc(F)c3)CC2)c1 (centres unmarked) [MKP-1225, 1-[(3-fluorophenyl)(phenyl)methyl]-4-(5-methylpyridine-3-carbonyl)piperazine]	7.42	6.68	6.32	> 39800	2.5 (≈ 6.42 µM)	–	–	–
Cc1cncc(C(=O)N2CCN(C(c3cccc(F)c3)c3cccc(F)c3)CC2)c1 [MKP-1268, 1-[bis(3-fluorophenyl)methyl]-4-(5-methylpyridine-3-carbonyl)piperazine]	7.44	6.95	6.84	> 39800	2.5 (≈ 6.14 µM)	–	–	–
Cc1cncc(C(=O)N2CCN(C(c3ccccc3)c3cccc(Cl)c3)CC2)c1 (centres unmarked) [MKP-1272, 1-[(3-chlorophenyl)(phenyl)methyl]-4-(5-methylpyridine-3-carbonyl)piperazine]	6.44	6.61	6.93	33600	10 (≈ 24.6 µM)	–	–	–
O=C(c1cncc(Br)c1)N1CCC(=C(c2ccccc2)c2ccccc2)CC1 [NZ-771, 3-bromo-5-[4-(diphenylmethylidene)piperidine-1-carbonyl]pyridine]	6.60	6.03	< 5.02	> 39800	20 (≈ 46.2 µM)	–	–	–
O=C(c1cncc(Br)c1)N1CCN(C2c3ccccc3C=Cc3ccccc32)CC1 [NZ-773, (5-bromo-3-pyridyl)-[4-(2-tricyclo[9.4.0.03,8]pentadeca-1(11),3(8),4,6,9,12,14-heptaenyl)piperazin-1-yl]methanone]	7.00	6.15	< 5.02	> 39800	20 (≈ 43.4 µM)	–	–	–
O=C(c1cncc(Br)c1)N1CCN(C2c3ccccc3CSc3ccccc32)CC1 (centres unmarked) [NZ-774, (5-bromo-3-pyridyl)-[4-(6,11-dihydrobenzo[c][1]benzothiepin-11-yl)piperazin-1-yl]methanone]	6.89	6.20	< 5.02	> 39800	5 (≈ 10.4 µM)	–	–	–
O=C(c1cncc(Br)c1)N1CCN(C2c3ccccc3COc3ccccc32)CC1 (centres unmarked) [NZ-776, (5-bromo-3-pyridyl)-[4-(6,11-dihydrobenzo[c][1]benzoxepin-11-yl)piperazin-1-yl]methanone]	6.85	6.32	< 5.02	> 39800	2.5 (≈ 5.38 µM)	–	–	–
Cc1cncc(C(=O)N2CCC(C(O)(c3ccccc3)c3ccccc3)CC2)c1 [NZ-782, [1-(5-methylpyridine-3-carbonyl)piperidin-4-yl]diphenylmethanol]	6.64	6.24	< 5.02	> 39800	5 (≈ 12.9 µM)	–	–	–
Cc1cncc(C(=O)N2CCC(=C(c3ccccc3)c3ccccc3)CC2)c1 [NZ-783, 3-[4-(diphenylmethylidene)piperidine-1-carbonyl]-5-methylpyridine]	7.07	6.24	< 5.02	25600	10 (≈ 27.1 µM)	–	–	–
